This note sets out measurements from patent publication US11083199B2, “Heterocycle derivatives as pesticides” (Bayer Aktiengesellschaft, priority 2017, dated 2021).

Holding throughout (type): in vivo
The test system of assay [1] is Myzus persicae. Kind of assay: Myzus persicae oral test. The following applies: 120 h, application rate 4 ppm, after 5 days, read-out: efficacy. On the procedure: [table] To produce a suitable active ingredient formulation, 1 part by weight of active ingredient is dissolved with the stated parts by weight of solvent and made up to the desired concentration with water. 50 μl of the active ingredient formulation are transferred into microtitre plates and made up to a final volume of 200 μl with 150 μl of IPL41 insect medium (33%+15% sugar). Subsequently, the plates are sealed with parafilm, which a mixed population of green peach aphids (Myzus persicae) within a second microtitre plate is able to puncture and imbibe the solution. After 5 days, the efficacy in % is determined. 100% means that all the aphids have been killed; 0% means that no aphids have been killed.

In assay [2] the test system is Myzus persicae. Briefly: Myzus persicae spray test. The following applies: foliar, 120 h, application rate 100 g/ha, Chinese cabbage leaf discs, after 5 days, read-out: efficacy. As to the method: (§1) [table] To produce a suitable active ingredient formulation, 1 part by weight of active ingredient is dissolved with the specified parts by weight of solvent and made up to the desired concentration with water containing an emulsifier concentration of 1000 ppm. To produce further test concentrations, the formulation is diluted with emulsifier-containing water. Discs of Chinese cabbage leaves (Brassica pekinensis) infested by all stages of the green peach aphid (Myzus persicae) are sprayed with an active ingredient formulation of the desired concentration. After 5 days, the efficacy in % is determined. 100% means that all the aphids have been killed; 0% means that no aphids have been killed.

The next assay deals with Phaedon cochleariae. Kind of assay: Phaedon cochleariae spray test. To be noted: 168 h, application rate 100 g/ha, larvae, after 7 days, read-out: efficacy. On the procedure:
as §1, with “pekinensis)” for “pekinensis) infested by all stages of the green peach aphid (Myzus persicae)”, “concentration and, after drying, populated with larvae of the mustard beetle (Phaedon cochleariae).” for “concentration.”, “7” for “5”, “beetle larvae” for “aphids”

For the next assay, the system named is Spodoptera frugiperda. Kind of assay: Spodoptera frugiperda spray test. The following applies: foliar, 168 h, application rate 100 g/ha, maize leaf discs, caterpillars, after 7 days, read-out: efficacy. On the procedure:
[table] To produce a suitable active ingredient formulation, 1 part by weight of active ingredient is dissolved with the specified parts by weight of solvent and made up to the desired concentration with water containing an emulsifier concentration of 1000 ppm. To produce further test concentrations, the formulation is diluted with emulsifier-containing water. Leaf discs of maize (Zea mays) are sprayed with an active ingredient formulation of the desired concentration and, after drying, populated with caterpillars of the fall armyworm (Spodoptera frugiperda). After 7 days, the efficacy in % is determined. 100% means that all the caterpillars have been killed; 0% means that no caterpillar has been killed.

Consider `CCS(=O)(=O)c1c(-c2nc3cc(C(F)(F)F)ncc3n2C)nc(Br)n1C(C)C` [Example I-002], for which the pest or weed control at 4 ppm in the assay with Myzus persicae [1] came to 100%.
Take `CCS(=O)(=O)c1c(-c2nc3cc(C(F)(F)F)ncc3n2C)nc(Br)n1C` [Example I-004, 2-[2-Bromo-5-(ethylsulfonyl)-1-methyl-1H-imidazol-4-yl]-3-methyl-6-(trifluoromethyl)-3H-imidazo[4,5-c]pyridine]: the pest or weed control at 4 ppm in the assay with Myzus persicae [1] came to 100%.
In the case of `CCS(=O)(=O)c1c(-c2nc3cc(C(F)(F)F)ncc3n2C)nc(-c2cnccc2F)n1C` [Example I-017], the pest or weed control at 4 ppm with Myzus persicae [1] stood at 100%. Moreover, the pest or weed control at 100 g/ha with Myzus persicae [2] came out at 100%.
Take `CCS(=O)(=O)c1c(-c2nc3cc(C(F)(F)F)ncc3n2C)nc(C#CC2CC2)n1C` [Example I-024]: in the assay on Myzus persicae [1], the pest or weed control at 4 ppm turned out to be 90%. The pest or weed control at 100 g/ha in the assay with Phaedon cochleariae and in the assay with Spodoptera frugiperda was 100% in each case.
For `CCS(=O)(=O)c1c(-c2nc3cc(C(F)(F)F)ncc3n2C)nc(-n2cccn2)n1C` [Example I-026], in the assay with Myzus persicae [1], the pest or weed control at 4 ppm is 100%. Further, the pest or weed control at 100 g/ha with Myzus persicae [2] was determined as 90%; in the assay with Phaedon cochleariae it was 100%.
Consider `CCS(=O)(=O)c1c(-c2nc3cc(C(F)(F)F)ncc3n2C)nc(-n2ccnc2)n1C` [Example I-028], for which the pest or weed control at 4 ppm with Myzus persicae [1] was 100%. Also, the pest or weed control at 100 g/ha with Myzus persicae [2] amounted to 90%; in the assay on Phaedon cochleariae, 100%.
Consider `CCS(=O)(=O)c1c(-c2nc3cc(C(F)(F)F)ncc3n2C)nc(-c2cc(Cl)sc2Cl)n1C` [Example I-031], for which the pest or weed control at 4 ppm in the assay on Myzus persicae [1] was 100%.
Consider `CCS(=O)(=O)c1c(-c2nc3cc(C(F)(F)F)ncc3n2C)nc(-c2cccn2C)n1C` [Example I-032], for which, in the assay with Myzus persicae [1], the pest or weed control at 4 ppm was determined as 100%.
For `CCS(=O)(=O)c1c(-c2nc3cc(C(F)(F)F)ncc3n2C)nc(-c2cn[nH]c2)n1C` [Example I-034], the pest or weed control at 4 ppm in the assay on Myzus persicae [1] came out at 100%. In addition, the pest or weed control at 100 g/ha in the assay with Myzus persicae [2] is 90%.
Consider `CCSc1c(-c2nc3cc(C(F)(F)F)ncc3n2C)nc(C(=O)OC)n1C` [Example I-035, Methyl 5-(ethylsulfanyl)-1-methyl-4-[3-methyl-6-(trifluoromethyl)-3H-imidazo[4,5-c]pyridin-2-yl]-1H-imidazole-2-carboxylate], for which, in the assay with Phaedon cochleariae, the pest or weed control at 100 g/ha was found to be 83%.
As to `CCS(=O)(=O)c1c(-c2nc3cc(C(F)(F)F)ncc3n2C)nc(C(=O)OC)n1C` [Example I-036, Methyl 5-(ethylsulfonyl)-1-methyl-4-[3-methyl-6-(trifluoromethyl)-3H-imidazo[4,5-c]pyridin-2-yl]-1H-imidazole-2-carboxylate], in the assay on Myzus persicae [1], the pest or weed control at 4 ppm was determined as 100%. Besides, the pest or weed control at 100 g/ha with Myzus persicae [2] and in the assay with Phaedon cochleariae was 100% in each case.
With `CCS(=O)(=O)c1c(-c2nc3cc(C(F)(F)F)ncc3n2C)nc(C(=O)NCC(F)(F)F)n1C` [Example I-037], the pest or weed control at 4 ppm in the assay on Myzus persicae [1] is 90%.
Consider `CCS(=O)(=O)c1c(-c2nc3cc(C(F)(F)F)ncc3n2C)nc(-c2cccs2)n1C` [Example I-044], for which, in the assay with Myzus persicae [1], the pest or weed control at 4 ppm came to 100%.
Regarding `CCS(=O)(=O)c1c(-c2nc3cc(C(F)(F)F)ncc3n2C)nc(C#N)n1C` [Example I-045, 5-(Ethylsulfonyl)-1-methyl-4-[3-methyl-6-(trifluoromethyl)-3H-imidazo[4,5-c]pyridin-2-yl]-1H-imidazole-2-carbonitrile], the pest or weed control at 4 ppm with Myzus persicae [1] worked out at 100%.
Take `CCS(=O)(=O)c1c(-c2nc3cc(C(F)(F)F)ncc3n2C)nc(C(=S)NC)n1C` [Example I-047]: the pest or weed control at 4 ppm with Myzus persicae [1] is 100%. In the assay with Myzus persicae [2], the pest or weed control at 100 g/ha turned out to be 100%.
For the molecule `CCS(=O)(=O)c1c(-c2nc3cc(C(F)(F)F)ncc3n2C)nc(C(=S)N(C)C)n1C` [Example I-048], in the assay on Myzus persicae [1], the pest or weed control at 4 ppm came out at 100%. For the same molecule, the pest or weed control at 100 g/ha with Myzus persicae [2] was determined as 90%.
With `CCS(=O)(=O)c1c(-c2nc3cc(C(F)(F)F)ncc3n2C)nc(-c2cncs2)n1C` [Example I-051], the pest or weed control at 4 ppm in the assay on Myzus persicae [1] is 100%. The pest or weed control at 100 g/ha in the assay with Myzus persicae [2] came to 90%.
`CCS(=O)(=O)c1c(-c2nc3cc(C(F)(F)F)ncc3n2C)nc(-c2cncn2C)n1C` [Example I-052]: the pest or weed control at 4 ppm in the assay on Myzus persicae [1] worked out at 100%.
`CCS(=O)(=O)c1c(-c2nc3cc(C(F)(F)F)ncc3n2C)nc(-c2nccn2C)n1C` [Example I-053]: in the assay on Myzus persicae [1], the pest or weed control at 4 ppm amounted to 100%.
`CCS(=O)(=O)c1c(-c2nc3cc(C(F)(F)F)nnc3n2C)nc(Br)n1C` [Example I-056]: the pest or weed control at 4 ppm in the assay with Myzus persicae [1] is 100%.
Consider `CCS(=O)(=O)c1c(-c2nc3cc(C(F)(F)F)ncc3n2C)nc(-c2cnc(C)s2)n1C` [Example I-058], for which the pest or weed control at 4 ppm in the assay on Myzus persicae [1] was 100%. Also, the pest or weed control at 100 g/ha in the assay with Myzus persicae [2] stood at 90%.
As for `CCS(=O)(=O)c1c(-c2nc3cc(C(F)(F)F)ncc3n2C)nc(-c2cnc(Cl)n2C)n1C` [Example I-059], in the assay with Myzus persicae [1], the pest or weed control at 4 ppm is 100%. Further, the pest or weed control at 100 g/ha in the assay with Myzus persicae [2] and in the assay with Phaedon cochleariae was 100% throughout.
As to `CC(C)S(=O)(=O)c1c(-c2nc3cc(C(F)(F)F)ncc3n2C)nc(-c2ccn(C)n2)n1C` [Example I-061], in the assay with Myzus persicae [1], the pest or weed control at 4 ppm turned out to be 100%. The pest or weed control at 100 g/ha in the assay on Myzus persicae [2] and with Phaedon cochleariae was 100% in each case.
On to `CCS(=O)(=O)c1c(-c2nc3cc(C(F)(F)F)ncc3n2C)nc(-c2ccnn2C)n1C` [Example I-062], for which the pest or weed control at 4 ppm with Myzus persicae [1] stood at 100%. Also, the pest or weed control at 100 g/ha with Myzus persicae [2] and in the assay on Phaedon cochleariae was 100% in each case.
As to `CCS(=O)(=O)c1c(-c2nc3cc(C(F)(F)F)ncc3n2C)nc(C)n1C` [Example I-064], the pest or weed control at 4 ppm in the assay with Myzus persicae [1] amounted to 100%. Also, the pest or weed control at 100 g/ha in the assay on Myzus persicae [2] came to 100%; with Phaedon cochleariae it was 83%.
Consider `CCS(=O)(=O)c1c(-c2nc3cc(C(F)(F)F)ncc3n2C)nc(-c2ccc(CC#N)cc2)n1C` [Example I-065], for which the pest or weed control at 4 ppm in the assay on Myzus persicae [1] stood at 100%. In addition, the pest or weed control at 100 g/ha in the assay on Myzus persicae [2] is 100%.
As to `CCS(=O)(=O)c1c(-c2nc3cc(C(F)(F)F)ncc3n2C)nc(-c2cnn(CC(F)(F)F)c2)n1C` [Example I-067], in the assay with Myzus persicae [1], the pest or weed control at 4 ppm is 100%. The pest or weed control at 100 g/ha in the assay on Myzus persicae [2] and in the assay with Phaedon cochleariae was 100% each time.
As to `CCS(=O)(=O)c1c(-c2nc3cc(C(F)(F)F)ncc3n2C)nc(-c2cc(C(F)(F)F)nn2C)n1C` [Example I-068], the pest or weed control at 4 ppm in the assay on Myzus persicae [1] came out at 100%. In addition, the pest or weed control at 100 g/ha in the assay on Phaedon cochleariae amounted to 100%.
For the molecule `CCS(=O)(=O)c1c(-c2nc3cc(C(F)(F)F)ncc3n2C)nc(C2=CCCCC2)n1C` [Example I-071], the pest or weed control at 100 g/ha in the assay on Myzus persicae [2] worked out at 90%.
Turning to `CCS(=O)(=O)c1c(-c2nc3cc(C(F)(F)F)ncc3n2C)nc(C2=CCC(C(F)(F)F)CC2)n1C` (centres unmarked) [Example I-072], in the assay on Myzus persicae [1], the pest or weed control at 4 ppm came to 100%.
For the molecule `CCS(=O)(=O)c1c(-c2nc3cc(C(F)(F)F)ncc3n2C)nc(-c2ccc(Cl)c(C#N)c2)n1C` [Example I-079], the pest or weed control at 4 ppm in the assay on Myzus persicae [1] amounted to 100%. Also, the pest or weed control at 100 g/ha in the assay on Myzus persicae [2] is 90%; with Phaedon cochleariae it was 83%.
For `CCS(=O)(=O)c1c(-c2nc3cc(C(F)(F)F)ncc3n2C)nc(-c2ccc(C#N)c(C(F)(F)F)c2)n1C` [Example I-080], the pest or weed control at 4 ppm in the assay with Myzus persicae [1] worked out at 100%. The pest or weed control at 100 g/ha in the assay on Phaedon cochleariae was 100%.
Consider `CCc1nc(-c2nc3cc(C(F)(F)F)ncc3n2C)c(S(=O)(=O)CC)n1C` [Example I-084], for which the pest or weed control at 4 ppm in the assay with Myzus persicae [1] was 100%. In addition, the pest or weed control at 100 g/ha with Myzus persicae [2] was 90%.
In the case of `CCS(=O)(=O)c1c(-c2nc3cc(C(F)(F)F)ncc3n2C)nc(CCC2CC2)n1C` [Example I-085, 2-[2-(2-Cyclopropylethyl)-5-(ethylsulfonyl)-1-methyl-1H-imidazol-4-yl]-3-methyl-6-(trifluoromethyl)-3H-imidazo[4,5-c]pyridine], the pest or weed control at 4 ppm with Myzus persicae [1] worked out at 100%. Also, the pest or weed control at 100 g/ha with Myzus persicae [2] was 90%.
As for `CCS(=O)(=O)c1c(-n2cc3cnc(C(F)(F)F)cc3n2)nc(-c2ccccc2)n1C` [Example I-095], the pest or weed control at 4 ppm in the assay on Myzus persicae [1] worked out at 100%. The pest or weed control at 100 g/ha in the assay with Myzus persicae [2] turned out to be 90%; in the assay on Spodoptera frugiperda it was 100%.
